Assay results taken from ChEMBL document CHEMBL1944551, “An integrated computational workflow for efficient and quantitative modeling of renin inhibitors” (Bioorg Med Chem, 2012).

Assay: physchem
Settings: octanol/buffer

| Compound | logP |
| --- | --- |
| O=C([C@H]1CNCC(=O)N1c1ccc(OCCCOCc2ccccc2)cc1)N(Cc1ccc(Cl)cc1)C1CC1 | 5.11 |
| Cc1cc(Cl)c(OCCOc2ccc(N3C(=O)CNC[C@@H]3C(=O)NCc3ccccc3)cc2)c(Cl)c1 | 4.39 |
| CCNC(=O)Cc1ccc(Cl)c(CN(C(=O)[C@H]2CNCC(=O)N2c2ccc(OCCOc3c(Cl)cc(C)cc3Cl)cc2)C2CC2)c1 | 5.6 |
| CCNCc1ccc(Cl)c(CN(C(=O)[C@H]2CNCC(=O)N2c2ccc(CCCOc3c(F)ccc(F)c3F)cc2)C2CC2)c1 | 5.89 |
| O=C(Cc1ccc(Cl)c(CN(C(=O)[C@H]2CNCC(=O)N2c2ccc(COC(=O)c3ccccc3)cc2)C2CC2)c1)NC1CC1 | 4.81 |
| CNC(=O)Cc1ccc(Cl)c(CN(C(=O)[C@H]2CNCC(=O)N2c2ccc(OCCOc3c(Cl)cc(C)cc3Cl)nc2)C2CC2)c1 | 4.43 |
| COC(=O)NCc1ccc(Cl)c(CN(C(=O)[C@H]2CNCC(=O)N2c2ccc(CCCOc3c(F)ccc(F)c3F)cc2)C2CC2)c1 | 5.48 |
| O=C(CC(F)(F)F)NCCc1ccc(Cl)c(CN(C(=O)[C@H]2CNCC(=O)N2c2ccc(OCCCOCc3ccccc3)cc2)C2CC2)c1 | 5.38 |
| O=C(OCc1ccc(N2C(=O)CNC[C@@H]2C(=O)N(Cc2cc(CNC3CC3)ccc2Cl)C2CC2)cc1)c1ccccc1 | 5.2 |
| Cc1cc(Cl)c(OCCOc2ccc(N3C(=O)CNC[C@@H]3C(=O)N(Cc3cc(CCNC(=O)CC(F)(F)F)ccc3Cl)C3CC3)cc2)c(Cl)c1 | 6.11 |
| O=C(Cc1ccc(Cl)c(CN(C(=O)[C@H]2CNCC(=O)N2c2ccc(CCCOc3c(F)ccc(F)c3F)cc2)C2CC2)c1)NC1CC1 | 5.8 |
| O=C([C@H]1CNCC(=O)N1c1ccc(OCCCOCc2ccccc2)cc1)N(Cc1cc(CCNC2CC2)ccc1Cl)C1CC1 | 5.66 |
| COc1ccccc1COCCCOc1ccc(N2C(=O)CNC[C@@H]2C(=O)NCc2ccccc2)cc1 | 3.62 |
| CNC(=O)OCCc1ccc(Cl)c(CN(C(=O)[C@H]2CNCC(=O)N2c2ccc(CCCOc3c(F)ccc(F)c3F)cc2)C2CC2)c1 | 5.56 |
| O=C(NCc1ccc(Cl)c(CN(C(=O)[C@H]2CNCC(=O)N2c2ccc(CCCOc3c(F)ccc(F)c3F)cc2)C2CC2)c1)C1CC1 | 5.54 |
| CNC(=O)CCc1ccc(Cl)c(CN(C(=O)[C@H]2CNCC(=O)N2c2ccc(COC(=O)c3ccccc3)cc2)C2CC2)c1 | 4.24 |
| O=C(Cc1ccc(Cl)c(CN(C(=O)[C@H]2CNCC(=O)N2c2ccc(CCCOc3cccc(Cl)c3)cc2)C2CC2)c1)NC1CC1 | 5.98 |
| COC(=O)NCCc1ccc(Cl)c(CN(C(=O)[C@H]2CNCC(=O)N2c2ccc(OCCOc3c(Cl)cc(C)cc3Cl)cc2)C2CC2)c1 | 5.67 |
| O=C([C@H]1CNCC(=O)N1c1ccc(OCCCOCc2ccccc2)cc1)N(Cc1cc(CNCC(F)F)ccc1Cl)C1CC1 | 5.34 |
| COC(=O)NCc1ccc(Cl)c(CN(C(=O)[C@H]2CNCC(=O)N2c2ccc(CCCOc3cccc(Cl)c3)cc2)C2CC2)c1 | 5.65 |
| CN(Cc1ccccc1Cl)C(=O)[C@H]1CNCC(=O)N1c1ccc(OCCCOCc2ccccc2)cc1 | 4.45 |
| CCNCCc1ccc(Cl)c(CN(C(=O)[C@H]2CNCC(=O)N2c2ccc(CCCOc3cccc(Cl)c3)cc2)C2CC2)c1 | 6.15 |
| Cc1cc(Cl)c(OCCOc2ccc(N3C(=O)CNC[C@@H]3C(=O)N(Cc3cc(CCNC(=O)CC(F)(F)F)ccc3Cl)C3CC3)cn2)c(Cl)c1 | 5.28 |
| COCCCc1cc(CN(C(=O)[C@H]2CNCC(=O)N2c2ccc(OCCOc3c(Cl)cc(C)cc3Cl)cc2)C2CC2)c(Cl)cn1 | 5.22 |

| Compound | logP |
| --- | --- |
| COCCc1ccc(Cl)c(CN(C(=O)[C@H]2CNCC(=O)N2c2ccc(CCCOc3c(F)ccc(F)c3F)cc2)C2CC2)c1 | 5.94 |
| CC(=O)NCCc1ccc(Cl)c(CN(C(=O)[C@H]2CNCC(=O)N2c2ccc(OCCOc3c(Cl)cc(C)cc3Cl)cc2)C2CC2)c1 | 5.38 |
| O=C(NCc1ccccc1)[C@H]1CNCC(=O)N1c1ccc(CCCOc2c(F)ccc(F)c2F)cc1 | 4.29 |
| CNC(=O)OCc1ccc(Cl)c(CN(C(=O)[C@H]2CNCC(=O)N2c2ccc(OCCOc3c(Cl)cc(C)cc3Cl)nc2)C2CC2)c1 | 4.75 |
| CCC(=O)NCc1ccc(Cl)c(CN(C(=O)[C@H]2CNCC(=O)N2c2ccc(COC(=O)c3ccccc3)cc2)C2CC2)c1 | 4.67 |
| O=C(OCc1ccc(N2C(=O)CNC[C@@H]2C(=O)N(Cc2cc(CNCC(F)F)ccc2Cl)C2CC2)cc1)c1ccccc1 | 4.96 |
| O=C(OCc1ccc(N2C(=O)CNC[C@@H]2C(=O)N(Cc2cc(CNC(=O)C3CC3)ccc2Cl)C2CC2)cc1)c1ccccc1 | 4.54 |
| O=C(OCc1ccc(N2C(=O)CNC[C@@H]2C(=O)N(Cc2cccc(Cl)c2)C2CC2)cc1)c1ccccc1 | 4.77 |
| CC(=O)NCc1ccc(Cl)c(CN(C(=O)[C@H]2CNCC(=O)N2c2ccc(CCCOc3c(F)ccc(F)c3F)cc2)C2CC2)c1 | 5.19 |
| O=C([C@H]1CNCC(=O)N1c1ccc(CCCOc2cccc(Cl)c2)cc1)N(Cc1cc(CNC2CC2)ccc1Cl)C1CC1 | 6.38 |
| O=C(OCc1ccc(N2C(=O)CNC[C@@H]2C(=O)N(Cc2cc(CCNCC(F)F)ccc2Cl)C2CC2)cc1)c1ccccc1 | 5.05 |
| Cc1cccc(CN(C(=O)[C@H]2CNCC(=O)N2c2ccc(CCCOc3c(F)ccc(F)c3F)cc2)C2CC2)c1C | 5.73 |
| CC(=O)NCCc1ccc(Cl)c(CN(C(=O)[C@H]2CNCC(=O)N2c2ccc(CCCOc3c(F)ccc(F)c3F)cc2)C2CC2)c1 | 5.28 |
| Cc1cc(Cl)c(OCCOc2ccc(N3C(=O)CNC[C@@H]3C(=O)NCc3ccccc3Cl)cn2)c(Cl)c1 | 4.15 |
| CCNCc1ccc(Cl)c(CN(C(=O)[C@H]2CNCC(=O)N2c2ccc(CCCOc3cccc(Cl)c3)cc2)C2CC2)c1 | 6.06 |
| O=C(OCc1ccc(N2C(=O)CNC[C@@H]2C(=O)NCc2ccccc2Cl)cc1)c1ccccc1 | 3.88 |
| Cc1cc(Cl)c(OCCOc2ccc(N3C(=O)CNC[C@@H]3C(=O)N(C)Cc3ccccc3Cl)cn2)c(Cl)c1 | 4.35 |
| Cc1cc(Cl)c(OCCOc2ccc(N3C(=O)CNC[C@@H]3C(=O)N(Cc3cc(CCNCC(F)F)ccc3Cl)C3CC3)cn2)c(Cl)c1 | 5.33 |
| Cc1cc(Cl)c(OCCOc2ccc(N3C(=O)CNC[C@@H]3C(=O)N(Cc3cc(CNC(=O)C4CC4)ccc3Cl)C3CC3)cc2)c(Cl)c1 | 5.65 |
| O=C(NCc1ccccc1Cl)[C@H]1CNCC(=O)N1c1ccc(OCCCOCc2ccccc2)cc1 | 4.26 |
| CN(Cc1ccccc1)C(=O)[C@H]1CNCC(=O)N1c1ccc(CCCOc2cccc(Cl)c2)cc1 | 4.66 |
| CC(=O)NCCc1ccc(Cl)c(CN(C(=O)[C@H]2CNCC(=O)N2c2ccc(COC(=O)c3ccccc3)cc2)C2CC2)c1 | 4.28 |
| Cc1cc(Cl)c(OCCOc2ccc(N3C(=O)CNC[C@@H]3C(=O)N(Cc3cc(CNCC(F)F)ccc3Cl)C3CC3)cn2)c(Cl)c1 | 5.24 |

More lines, now with the values ahead:

| logP | Compound |
| --- | --- |
| 5.06 | COc1ccccc1COCCCOc1ccc(N2C(=O)CNC[C@@H]2C(=O)N(Cc2ccc(Cl)cc2)C2CC2)cc1 |
| 5.01 | CNCCc1ccc(Cl)c(CN(C(=O)[C@H]2CNCC(=O)N2c2ccc(OCCCOCc3ccccc3)cc2)C2CC2)c1 |
| 4.21 | COc1ccccc1COCCCOc1ccc(N2C(=O)CNC[C@@H]2C(=O)NCc2ccccc2Cl)cc1 |
| 5 | CCC(=O)NCc1ccc(Cl)c(CN(C(=O)[C@H]2CNCC(=O)N2c2ccc(OCCCOCc3ccccc3OC)cc2)C2CC2)c1 |
| 5.01 | Cc1cc(Cl)c(OCCOc2ccc(N3C(=O)CNC[C@@H]3C(=O)N(Cc3cccc(C)c3C)C3CC3)cn2)c(Cl)c1 |
| 5.56 | COc1cccc(CN(C(=O)[C@H]2CNCC(=O)N2c2ccc(CCCOc3cccc(Cl)c3)cc2)C2CC2)c1C |
| 5.32 | O=C(OCc1ccc(N2C(=O)CNC[C@@H]2C(=O)N(Cc2cccc(Cl)c2Cl)C2CC2)cc1)c1ccccc1 |
| 3.45 | COc1ccccc1COCCCOc1ccc(N2C(=O)CNC[C@@H]2C(=O)N(Cc2ccnc(C)c2OC)C2CC2)cc1 |
| 4.82 | CCNC(=O)Cc1ccc(Cl)c(CN(C(=O)[C@H]2CNCC(=O)N2c2ccc(OCCCOCc3ccccc3OC)cc2)C2CC2)c1 |
| 4.44 | COCCCc1cc(CN(C(=O)[C@H]2CNCC(=O)N2c2ccc(OCCCOCc3ccccc3OC)cc2)C2CC2)c(Cl)cn1 |
| 5.29 | COCCCc1cc(CN(C(=O)[C@H]2CNCC(=O)N2c2ccc(CCCOc3cccc(Cl)c3)cc2)C2CC2)c(Cl)cn1 |
| 5.83 | Cc1cc(Cl)c(OCCOc2ccc(N3C(=O)CNC[C@@H]3C(=O)N(Cc3ccccc3Cl)C3CC3)cc2)c(Cl)c1 |
| 2.87 | CNCc1ccc(Cl)c(CN(C(=O)[C@@H]2CNCC(=O)N2c2cnc(OCCCOCc3ccccc3OC)nc2)C2CC2)c1 |
| 3.28 | COc1ccccc1COCCCOc1ncc(N2C(=O)CNC[C@@H]2C(=O)N(Cc2cc(CNCC(F)F)ccc2Cl)C2CC2)cn1 |
| 3.23 | COc1ccccc1COCCCOc1ncc(N2C(=O)CNC[C@@H]2C(=O)N(Cc2cc(CNC(=O)CC(F)(F)F)ccc2Cl)C2CC2)cn1 |
| 3.64 | COc1ccccc1COCCCOc1ncc(N2C(=O)CNC[C@@H]2C(=O)N(Cc2cccc(Cl)c2Cl)C2CC2)cn1 |
| 4.94 | COC(=O)NCCc1ccc(Cl)c(CN(C(=O)[C@H]2CNCC(=O)N2c2ccc(OCCCOCc3ccccc3)cc2)C2CC2)c1 |
| 3.13 | COc1ccccc1COCCCOc1ncc(N2C(=O)CNC[C@@H]2C(=O)N(Cc2cc(CC(=O)NC3CC3)ccc2Cl)C2CC2)cn1 |
| 5.33 | COc1ccccc1COCCCOc1ccc(N2C(=O)CNC[C@@H]2C(=O)N(Cc2cc(CCNC(=O)CC(F)(F)F)ccc2Cl)C2CC2)cc1 |
| 2.51 | COc1ccccc1COCCCOc1ncc(N2C(=O)CNC[C@@H]2C(=O)N(Cc2cc(CNC(C)=O)ccc2Cl)C2CC2)cn1 |
| 4.66 | COCCCc1cc(CN(C(=O)[C@H]2CNCC(=O)N2c2ccc(OCCCOCc3ccccc3OC)cc2)C2CC2)c(Cl)c[n+]1[O-] |
| 2.88 | CNC(=O)OCCc1ccc(Cl)c(CN(C(=O)[C@H]2CNCC(=O)N2c2cnc(OCCCOCc3ccccc3OC)nc2)C2CC2)c1 |
| 4.87 | CCNC(=O)Cc1ccc(Cl)c(CN(C(=O)[C@H]2CNCC(=O)N2c2ccc(OCCCOCc3ccccc3)cc2)C2CC2)c1 |
| 5.31 | CCNCCc1ccc(Cl)c(CN(C(=O)[C@H]2CNCC(=O)N2c2ccc(OCCCOCc3ccccc3OC)cc2)C2CC2)c1 |
| 4.57 | CC(=O)NCc1ccc(Cl)c(CN(C(=O)[C@H]2CNCC(=O)N2c2ccc(OCCCOCc3ccccc3)cc2)C2CC2)c1 |
| 3.26 | COCCc1ccc(Cl)c(CN(C(=O)[C@@H]2CNCC(=O)N2c2cnc(OCCCOCc3ccccc3OC)nc2)C2CC2)c1 |
| 3.05 | COc1ccccc1COCCCOc1ncc(N2C(=O)CNC[C@@H]2C(=O)N(Cc2ccc(Cl)cc2)C2CC2)cn1 |
